Source: the NIST ThermoML archive (doi:10.1021/je7003116)

Assay: mn = molality of the nth substance listed, in mol/kg
Conditions: for electrical conductivity / mass density: 101 kPa, Liquid; for electrical conductivity: Alternating current cell with electrodes

CC(=O)CC(c1ccccc1)c1c([O-])c2ccccc2oc1=O.[Na+] (stereo not given) [warfarin sodium] + O
Conditions	electrical conductivity [S/m]	mass density [kg/m3]	surface tension liquid-gas [mN/m]
293.15 K, m1 = 0.005	0.0273	–	–
293.15 K, m1 = 0.00573	–	998.701	–
293.15 K, m1 = 0.006	0.0326	–	66.46
293.15 K, m1 = 0.00689	–	998.801	–
293.15 K, m1 = 0.007	0.0379	–	65.61
293.15 K, m1 = 0.00749	–	998.852	–
293.15 K, m1 = 0.008	0.0434	–	64.92
293.15 K, m1 = 0.00851	–	998.94	–
293.15 K, m1 = 0.009	0.0485	–	64.06
293.15 K, m1 = 0.00983	–	999.054	–
293.15 K, m1 = 0.01	0.0535	–	62.77
293.15 K, m1 = 0.018	–	–	58.07
293.15 K, m1 = 0.02	0.1042	–	–
293.15 K, m1 = 0.02401	–	1000.27	–
293.15 K, m1 = 0.027	–	–	52.97
293.15 K, m1 = 0.04	0.198	–	50.48
293.15 K, m1 = 0.0466	–	1002.19	–
293.15 K, m1 = 0.054	–	–	48.47
293.15 K, m1 = 0.06	0.283	–	–
293.15 K, m1 = 0.067	–	–	45.58
293.15 K, m1 = 0.0718	–	1004.26	–
293.15 K, m1 = 0.078	–	–	43.98
293.15 K, m1 = 0.08	0.381	–	–
293.15 K, m1 = 0.089	–	–	41.68
293.15 K, m1 = 0.0984	–	1006.41	–
293.15 K, m1 = 0.1	0.464	–	–
293.15 K, m1 = 0.107	–	–	41.58
293.15 K, m1 = 0.125	0.56	–	40.94
293.15 K, m1 = 0.1251	–	1008.51	–
293.15 K, m1 = 0.15	0.651	1010.43	40.38
293.15 K, m1 = 0.175	0.737	–	40.23
293.15 K, m1 = 0.176	–	1012.59	–
293.15 K, m1 = 0.2	0.822	1014.56	40.72
293.15 K, m1 = 0.225	0.901	1016.71	40.23
293.15 K, m1 = 0.25	0.974	1018.89	39.64
293.15 K, m1 = 0.275	1.041	1020.99	–
293.15 K, m1 = 0.279	–	–	40.09
293.15 K, m1 = 0.3	1.102	1023.15	–
293.15 K, m1 = 0.325	–	1025.24	–
293.15 K, m1 = 0.35	–	1027.33	–
293.15 K, m1 = 0.375	–	1029.29	–
293.15 K, m1 = 0.401	–	1031.33	–
303.15 K, m1 = 0.005	0.0288	–	–
303.15 K, m1 = 0.00579	–	996.134	–
303.15 K, m1 = 0.006	0.0344	–	–
303.15 K, m1 = 0.00695	–	996.231	–
303.15 K, m1 = 0.007	0.04	–	–
303.15 K, m1 = 0.00754	–	996.281	–
303.15 K, m1 = 0.008	0.0455	–	–
303.15 K, m1 = 0.00857	–	996.367	–
303.15 K, m1 = 0.009	0.051	–	–
303.15 K, m1 = 0.00987	–	996.476	–
303.15 K, m1 = 0.01	0.0565	–	–
303.15 K, m1 = 0.02	0.1087	–	–
303.15 K, m1 = 0.024	–	997.658	–
303.15 K, m1 = 0.04	0.209	–	–
303.15 K, m1 = 0.0465	–	999.515	–
303.15 K, m1 = 0.06	0.302	–	–
303.15 K, m1 = 0.0715	–	1001.52	–
303.15 K, m1 = 0.08	0.39	–	–
303.15 K, m1 = 0.0983	–	1003.59	–
303.15 K, m1 = 0.1	0.473	–	–
303.15 K, m1 = 0.125	0.575	1005.62	–
303.15 K, m1 = 0.15	0.67	1007.48	–
303.15 K, m1 = 0.175	0.761	–	–
303.15 K, m1 = 0.176	–	1009.57	–
303.15 K, m1 = 0.2	0.847	1011.47	–
303.15 K, m1 = 0.225	0.928	1013.56	–
303.15 K, m1 = 0.25	1.008	1015.65	–
303.15 K, m1 = 0.275	1.081	1017.69	–
303.15 K, m1 = 0.3	1.154	1019.77	–
303.15 K, m1 = 0.325	–	1021.79	–
303.15 K, m1 = 0.35	–	1023.81	–
303.15 K, m1 = 0.375	–	1025.71	–
303.15 K, m1 = 0.3999	–	1027.67	–
313.15 K, m1 = 0.005	0.0299	–	–
313.15 K, m1 = 0.00576	–	992.687	–
313.15 K, m1 = 0.006	0.0358	–	–
313.15 K, m1 = 0.00695	–	992.784	–
313.15 K, m1 = 0.007	0.0416	–	–
313.15 K, m1 = 0.00759	–	992.836	–
313.15 K, m1 = 0.008	0.0474	–	–
313.15 K, m1 = 0.00857	–	992.916	–
313.15 K, m1 = 0.009	0.0532	–	–
313.15 K, m1 = 0.00988	–	993.022	–
313.15 K, m1 = 0.01	0.059	–	–
313.15 K, m1 = 0.02	0.1131	–	–
313.15 K, m1 = 0.0241	–	994.171	–
313.15 K, m1 = 0.04	0.216	–	–
313.15 K, m1 = 0.047	–	995.977	–
313.15 K, m1 = 0.06	0.314	–	–
313.15 K, m1 = 0.0719	–	997.928	–
313.15 K, m1 = 0.08	0.401	–	–
313.15 K, m1 = 0.0984	–	999.945	–
313.15 K, m1 = 0.1	0.489	–	–
313.15 K, m1 = 0.125	0.595	1001.91	–
313.15 K, m1 = 0.15	0.694	1003.72	–
313.15 K, m1 = 0.175	0.79	–	–
313.15 K, m1 = 0.176	–	1005.74	–
313.15 K, m1 = 0.2	0.88	1007.59	–
313.15 K, m1 = 0.225	0.963	1009.61	–
313.15 K, m1 = 0.25	1.046	1011.64	–
313.15 K, m1 = 0.275	1.13	1013.62	–
313.15 K, m1 = 0.3	1.206	1015.64	–
313.15 K, m1 = 0.325	–	1017.6	–
313.15 K, m1 = 0.35	–	1019.56	–
313.15 K, m1 = 0.375	–	1021.4	–
313.15 K, m1 = 0.4009	–	1023.31	–
323.15 K, m1 = 0.005	0.0327	–	–
323.15 K, m1 = 0.00585	–	988.498	–
323.15 K, m1 = 0.006	0.039	–	–
323.15 K, m1 = 0.007	0.0454	–	–
323.15 K, m1 = 0.00702	–	988.591	–
323.15 K, m1 = 0.00767	–	988.642	–
323.15 K, m1 = 0.008	0.0516	–	–
323.15 K, m1 = 0.0087	–	988.722	–
323.15 K, m1 = 0.009	0.0576	–	–
323.15 K, m1 = 0.01	0.0638	–	–
323.15 K, m1 = 0.01001	–	988.824	–
323.15 K, m1 = 0.02	0.1211	–	–
323.15 K, m1 = 0.0243	–	989.947	–
323.15 K, m1 = 0.04	0.233	–	–
323.15 K, m1 = 0.0469	–	991.708	–
323.15 K, m1 = 0.06	0.338	–	–
323.15 K, m1 = 0.072	–	993.609	–
323.15 K, m1 = 0.08	0.429	–	–
323.15 K, m1 = 0.0985	–	995.582	–
323.15 K, m1 = 0.1	0.523	–	–
323.15 K, m1 = 0.125	0.634	997.493	–
323.15 K, m1 = 0.15	0.734	999.248	–
323.15 K, m1 = 0.175	0.83	–	–
323.15 K, m1 = 0.1765	–	1001.22	–
323.15 K, m1 = 0.2	0.921	1003.02	–
323.15 K, m1 = 0.225	1.008	1004.99	–
323.15 K, m1 = 0.25	1.091	1006.96	–
323.15 K, m1 = 0.275	1.171	1008.89	–
323.15 K, m1 = 0.3	1.245	1010.86	–
323.15 K, m1 = 0.325	–	1012.77	–
323.15 K, m1 = 0.35	–	1014.68	–
323.15 K, m1 = 0.375	–	1016.47	–
323.15 K, m1 = 0.4021	–	1018.32	–
